The test system of data set [1] is MRAB (A. baumannii) ATCC BAA 1605. The data set is classed as cell-based, Acinetobacter baumannii. The procedure, abridged: (§1)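 Mid-log cultures grown in CAMHB and diluted to 1× 10^6 cfu/ml in PBS were mixed with an equal volume of peptide in CAMHB (80 µM to 0.63 µM twofold dilutions). MIC taken as the mean of three independent experiments.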
Data set [2] is described as follows: Solubility of antibacterial peptides in solution. It counts as physicochemical.
The subject of data set [3] is MRPA (P. aeruginosa) CCARM 2180. It counts as cell-based, Pseudomonas aeruginosa. As to conditions: CCARM 2180, 18 h. The essentials: as §1
The test system of data set [4] is VRE (E. faecalis) ATCC 51575. The data set is classed as cell-based, Enterococcus faecalis. The essentials: as §1
The test system of data set [5] is MRSA (S. aureus) KCCM 40510. It counts as cell-based, Staphylococcus aureus. As to conditions: KCCM 40510, 18 h. The procedure, abridged: as §1
The subject of data set [6] is 30 species of Acinetobacter baumannii (A. baumannii). The data set is classed as cell-based. As for the experimental part: In addition, the results obtained by measuring the minimum inhibitory concentrations of KSH29, KSH42 and KSH43 against 30 species of Acinetobacter baumannii (A. baumannii) are shown in Table 4 below.
The minimum inhibitory concentrations (MIC) against the 30 species of Acinetobacter baumannii were measured in the following manner.
The strain 1605 was purchased from ATCC (American Type Culture Collection, USA). In addition, the strain 40203 was purchased from the Korean Culture Center of Microorganisms.
The COL^R refers to resistance to colistin, the TGC^R refers to resistance to tigecycline, and the TGC^I refers to tigecycline intermediate strains.

Setting [7] is: CAMHB, 37° C., 18 hours, average of three experiments.

In brackets after ≈: the same amount, converted by molar mass. Like-named read-outs stand apart in the source and are kept apart here. Square brackets hold non-standard residues; d marks the D form. Peptide text beside a SMILES is read from it.

For orientation: solubility means the dissolved amount per volume that the medium holds. In the case of `CC[C@@H](C)[C@@H](NC(=O)[C@@H](Cc1c[nH]c2ccccc12)NC(=O)[C@H](NC(=O)[C@@H](CC(C)C)NC(=O)[C@H](N)Cc1c[nH]c2ccccc12)C(C)C)C(=O)N[C@H](Cc1c[nH]c2ccccc12)C(=O)N[C@H](CCC(N)=O)C(=O)N[C@H](CCCNC(=N)N)C(=O)N[C@H](CCCNC(=N)N)C(=O)N[C@H](CCCNC(=N)N)C(N)=O` [KSH30, wlvwiwqrrr] (H-[dW][dL][dV][dW][dI][dW][dQ][dR][dR][dR]-NH2; N-terminus assumed), the “MIC MRAB (A. baumannii) ATCC BAA 1605” value in data set [1] (setting [7]) stood at 1.25 µM (≈ 1.87 µg/mL). In addition, the solubility at 12 h in data set [2] (aqueous buffer) was at least 25 µM; in data set [2] (plasma or biological fluid), 50 µM (≈ 74.9 µg/mL); in data set [2] (water), above 2000 µM. Besides, in data set [3], the “MIC MRPA (P. aeruginosa) CCARM 2180” value is listed as above 5 µM.
For the molecule `CC[C@@H](C)[C@@H](NC(=O)[C@@H](Cc1c[nH]c2ccccc12)NC(=O)[C@H](NC(=O)[C@@H](CC(C)C)NC(=O)[C@H](N)Cc1c[nH]c2ccccc12)C(C)C)C(=O)N[C@H](Cc1c[nH]c2ccccc12)C(=O)N[C@H](CCCNC(=N)N)C(=O)N[C@H](CCCNC(=N)N)C(=O)N[C@H](CCC(N)=O)C(=O)N[C@H](CCCNC(=N)N)C(N)=O` [KSH31, wlvwiwrrqr] (H-[dW][dL][dV][dW][dI][dW][dR][dR][dQ][dR]-NH2; N-terminus assumed), the “MIC MRAB (A. baumannii) ATCC BAA 1605” value in data set [1] (setting [7]) is 1.25 µM (≈ 1.87 µg/mL). Further, the solubility at 12 h in data set [2] (aqueous buffer) is at least 100 µM; in data set [2] (plasma or biological fluid), 25 µM (≈ 37.4 µg/mL); in data set [2] (water) it was above 2000 µM. In addition, in data set [4] (setting [7]), the “MIC VRE (E. faecalis) ATCC 51575” value is given as 1.25 µM (≈ 1.87 µg/mL). The “MIC MRPA (P. aeruginosa) CCARM 2180” value in data set [3] was above 5 µM.
On to `CC[C@@H](C)[C@@H](NC(=O)[C@@H](Cc1c[nH]c2ccccc12)NC(=O)[C@H](NC(=O)[C@@H](CC(C)C)NC(=O)[C@H](N)Cc1c[nH]c2ccccc12)C(C)C)C(=O)N[C@H](Cc1c[nH]c2ccccc12)C(=O)N[C@H](CCCNC(=N)N)C(=O)N[C@H](CCCNC(=N)N)C(N)=O` [KSH32, wlvwiwrr] (H-[dW][dL][dV][dW][dI][dW][dR][dR]-NH2; N-terminus assumed), for which the “MIC MRAB (A. baumannii) ATCC BAA 1605” value in data set [1] (ATCC BAA 1605, 18 h) is on record as 1.25 µM (≈ 1.52 µg/mL). In data set [5], the “MIC MRSA (S. aureus) KCCM 40510” value was found to be 1.25 µM (≈ 1.52 µg/mL). Also, the solubility at 12 h in data set [2] (aqueous buffer) was 25 µM (≈ 30.3 µg/mL); in data set [2] (plasma or biological fluid) it was 50 µM (≈ 60.7 µg/mL); in data set [2] (water), above 2000 µM. Further, the “MIC VRE (E. faecalis) ATCC 51575” value in data set [4] (ATCC 51575, 18 h) was determined as 1.25 µM (≈ 1.52 µg/mL). The “MIC MRPA (P. aeruginosa) CCARM 2180” value in data set [3] was above 5 µM.
In the case of `CC[C@@H](C)[C@@H](NC(=O)[C@@H](Cc1c[nH]c2ccccc12)NC(=O)[C@H](NC(=O)[C@@H](CC(C)C)NC(=O)[C@@H](Cc1c[nH]c2ccccc12)NC(=O)[C@H](N)CC(=O)O)C(C)C)C(=O)N[C@H](Cc1c[nH]c2ccccc12)C(=O)N[C@H](CCCNC(=N)N)C(=O)N[C@H](CCCNC(=N)N)C(=O)N[C@H](CCCNC(=N)N)C(N)=O` [KSH36, dwlvwiwrrr] (H-[dD][dW][dL][dV][dW][dI][dW][dR][dR][dR]-NH2; N-terminus assumed), in data set [1] (ATCC BAA 1605, 18 h), the “MIC MRAB (A. baumannii) ATCC BAA 1605” value was 5 µM (≈ 7.42 µg/mL). In data set [5], the “MIC MRSA (S. aureus) KCCM 40510” value was 25 µM (≈ 37.1 µg/mL). The solubility at 12 h was above 200 µM in data set [2] (aqueous buffer), 100 µM (≈ 148 µg/mL) in data set [2] (plasma or biological fluid) and above 2000 µM in data set [2] (water). Further, the “MIC VRE (E. faecalis) ATCC 51575” value in data set [4] (ATCC 51575, 18 h) is 2.5 µM (≈ 3.71 µg/mL). In addition, the “MIC MRPA (P. aeruginosa) CCARM 2180” value in data set [3] is on record as above 5 µM.
On to `CC(C)[C@@H](NC(=O)[C@H](N)Cc1c[nH]c2ccccc12)C(=O)N[C@@H](C(=O)N[C@H](Cc1c[nH]c2ccccc12)C(=O)N[C@H](Cc1c[nH]c2ccccc12)C(=O)N[C@@H](C(=O)N[C@H](CCCNC(=N)N)C(=O)N[C@H](CCCNC(=N)N)C(=O)N[C@H](CCCNC(=N)N)C(N)=O)C(C)C)C(C)C` [KSH40, wvvwwvrrr] (H-[dW][dV][dV][dW][dW][dV][dR][dR][dR]-NH2; N-terminus assumed), for which the “MIC MRAB (A. baumannii) ATCC BAA 1605” value in data set [1] (ATCC BAA 1605, 18 h) is 1.25 µM (≈ 1.68 µg/mL). The “MIC MRSA (S. aureus) KCCM 40510” value in data set [5] is 1.25 µM (≈ 1.68 µg/mL). Further, the solubility at 12 h was at least 100 µM in data set [2] (aqueous buffer), 100 µM (≈ 134 µg/mL) in data set [2] (plasma or biological fluid) and above 2000 µM in data set [2] (water). For the same molecule, in data set [4] (ATCC 51575, 18 h), the “MIC VRE (E. faecalis) ATCC 51575” value worked out at 1.25 µM (≈ 1.68 µg/mL). In data set [3], the “MIC MRPA (P. aeruginosa) CCARM 2180” value worked out at 5 µM (≈ 6.71 µg/mL).
Consider `CC(C)[C@@H](NC(=O)[C@H](N)Cc1c[nH]c2ccccc12)C(=O)N[C@@H](C(=O)N[C@H](Cc1c[nH]cn1)C(=O)N[C@@H](C(=O)N[C@@H](C(=O)N[C@H](Cc1c[nH]c2ccccc12)C(=O)N[C@H](CCCNC(=N)N)C(=O)N[C@H](CCCNC(=N)N)C(=O)N[C@H](CCCNC(=N)N)C(N)=O)C(C)C)C(C)C)C(C)C` [KSH45, wvvhvvwrrr] (H-[dW][dV][dV][dH][dV][dV][dW][dR][dR][dR]-NH2; N-terminus assumed), for which, in data set [1] (ATCC BAA 1605, 18 h), the “MIC MRAB (A. baumannii) ATCC BAA 1605” value is 1.25 µM (≈ 1.74 µg/mL). Also, the “MIC MRSA (S. aureus) KCCM 40510” value in data set [5] came out at 1.25 µM (≈ 1.74 µg/mL). Also, the values for the solubility at 12 h in data set [2] (aqueous buffer), in data set [2] (plasma or biological fluid) and in data set [2] (water) were above 200 µM, 50 µM (≈ 69.6 µg/mL) and above 2000 µM, respectively. Moreover, the “MIC VRE (E. faecalis) ATCC 51575” value in data set [4] (ATCC 51575, 18 h) amounted to 1.25 µM (≈ 1.74 µg/mL). Also, the “MIC MRPA (P. aeruginosa) CCARM 2180” value in data set [3] is reported as 2.5 µM (≈ 3.48 µg/mL).
Consider `CC[C@@H](C)[C@@H](NC(=O)[C@@H](Cc1c[nH]c2ccccc12)NC(=O)[C@@H](CCCCN)NC(=O)[C@@H](CCCCN)NC(=O)[C@H](N)CCCCN)C(=O)N[C@H](Cc1c[nH]c2ccccc12)C(=O)N[C@@H](C(=O)N[C@H](CC(C)C)C(=O)N[C@H](Cc1c[nH]c2ccccc12)C(=O)N[C@H](CCCCN)C(N)=O)C(C)C` [KSH46, kkkwiwvlwk] (H-[dK][dK][dK][dW][dI][dW][dV][dL][dW][dK]-NH2; N-terminus assumed), for which, in data set [1] (ATCC BAA 1605, 18 h), the “MIC MRAB (A. baumannii) ATCC BAA 1605” value is listed as 0.63 µM (≈ 0.891 µg/mL). Moreover, the “MIC MRSA (S. aureus) KCCM 40510” value in data set [5] stood at 1.25 µM (≈ 1.77 µg/mL). Also, the solubility at 12 h in data set [2] (aqueous buffer) is above 200 µM; in data set [2] (plasma or biological fluid) it was 200 µM (≈ 283 µg/mL); in data set [2] (water) it was above 2000 µM. In data set [4] (ATCC 51575, 18 h), the “MIC VRE (E. faecalis) ATCC 51575” value turned out to be 1.25 µM (≈ 1.77 µg/mL). Besides, the “MIC MRPA (P. aeruginosa) CCARM 2180” value in data set [3] was 1.25 µM (≈ 1.77 µg/mL).
The MIC is the lowest concentration found to suppress growth. Colistin [reference compound]: the solubility at 12 h in data set [2] (read-out: Solubility in solution CAMHB) is above 200 µM; in data set [2] (read-out: Solubility in solution H2O) it was above 2000 µM; in data set [2] (read-out: Solubility in solution PBS) it was above 200 µM. The MIC in data set [6] (A. baumannii strain 1) is recorded as 0.63 µM; in data set [6] (A. baumannii strain 3 (COL^R)) it was above 40 µM; in data set [6] (A. baumannii strain 6 (TGC^I)), 2.5 µM; in data set [6] (A. baumannii strain 10), 2.5 µM; in data set [6] (A. baumannii strain 14), 1.25 µM; in data set [6] (A. baumannii strain 15), 0.63 µM. In addition, the MIC in data set [6] (A. baumannii strain 16) was below 0.31 µM; in data set [6] (A. baumannii strain 19), below 0.31 µM; in data set [6] (A. baumannii strain 22 (TGC^I)), 1.25 µM; in data set [6] (A. baumannii strain 39), below 0.31 µM; in data set [6] (A. baumannii strain 44), 1.25 µM; in data set [6] (A. baumannii strain 66) it was 1.25 µM. Also, the MIC is given as 0.63 µM in data set [6] (A. baumannii strain 68); 1.25 µM in data set [6] (A. baumannii strain 69); 1.25 µM in data set [6] (A. baumannii strain 71); below 0.31 µM in data set [6] (A. baumannii strain 76); 0.63 µM in data set [6] (A. baumannii strain 80); 0.63 µM in data set [6] (A. baumannii strain 82). The MIC in data set [6] (A. baumannii strain 86) was 0.63 µM; in data set [6] (A. baumannii strain 89), 2.5 µM; in data set [6] (A. baumannii strain 102 (TGC^I)), 0.63 µM; in data set [6] (A. baumannii strain 127), 0.63 µM; in data set [6] (A. baumannii strain 141 (TGC^R)) it was below 0.31 µM; in data set [6] (A. baumannii strain 144), 0.63 µM. The minimal inhibitory concentration (MIC) in data set [6] (A. baumannii strain 147 (TGC^R)) was found to be 5 µM; in data set [6] (A. baumannii strain 152 (TGC^R)) it was 1.25 µM; in data set [6] (A. baumannii strain 1605 (ATCC)) it was 0.63 µM; in data set [6] (A. baumannii strain 10087), 1.25 µM; in data set [6] (A. baumannii strain 19606), 1.25 µM; in data set [6] (A. baumannii strain 40203 (Korean Culture Center of Microorganisms)), 0.63 µM.

The values are drawn from patent US20230287044A1, “NOVEL ANTIBACTERIAL PEPTIDE AND USE THEREOF” (priority 2020, published 2023).
